Square brackets hold non-standard residues; d marks the D form. Peptide text beside a SMILES is read from it. Orn = NCCC[C@H](N)C(=O)O; βAla = NCCC(=O)O
Columns and labels:
5 SWI/SNF components = assay: ELISA-based peptide binding assay, summary for all five proteins; conditions: biotin-conjugated peptide, same peptide concentrations
Description: Fig. 3 Effects of VGN50 on KSHV gene transcription and VGN50 binding with SWI/SNF components. a KSHV qRT-PCR array analysis was used to study effects of VGN50 on KSHV gene transcription in a genome-wide manner. Uninduced (−; no doxycycline added) or dox-induced (+; 1 μg/ml) cells were treated with VGN50 or the mutant peptide (Mut-P) at a concentration of 24 μM. Samples were collected at 24 h post-treatment. Expression in uninduced cells was set as 1 for each viral gene and expression shown as fold activation relative to no-Dox samples. Selected cellular genes were also included in the PCR array for comparison. 18S ribosomal RNA was used as an internal control. b KSHV protein expression. […] Peptide binding measured as OD values at 450 nm are shown. […]
To confirm the basis of the VGN50 action, the biochemical interactions between VGN50 and SWI/SNF proteins (i.e., putative VGN50 target molecules), were examined by ELISA-based binding assays using purified five individual SWI/SNF components prepared from baculovirus-infected Sf9 cells (Fig. 3d). Increasing concentrations of biotin-conjugated VGN50 or Mut-P were incubated in an ELISA plate coated with each SWI/SNF component, and the bound peptides were detected by HRP-streptavidin (Fig. 3e). […]

MYC expression in BC-1 = assay: MYC qRT-PCR; format: cell-based, human; conditions: BC-1, 24 μM, 24 h
Description: (§1) As a next step, we sought to identify the cellular pathways that are impacted by VGN50. For this, RNA-seq analysis was conducted on total RNA isolated from cells harvested after 24 h of incubation with VGN50. Mutant peptide was used as a comparison to identify differentially regulated genes by VGN50 (Fig. 4a). […] Furthermore, we confirmed the result by RT-qPCR that the expression of MYC itself was decreased in both BCBL-1 and BC-1 cells after treatment with VGN50, but not mutant peptide (Fig. 4c).
(§2) Fig. 4 VGN50 target identification with RNA-sequencing. a Total RNA-sequencing. BCBL-1 cells were treated with either VGN50 or mutant peptide for 24 h (24 μM, n = 3). Untreated cells were used as a negative control. RNA-sequencing datasets from VGN50-peptide-treated samples were compared with that from mutant-peptide-treated samples, and differentially regulated genes were depicted as a volcano plot (left panel). b Gene Set Enrichment Analyses (GSEA). […] Peptide-treated samples were used for qRT-PCR analysis in duplicate and confirmed MYC down-regulation. (VGN50, 24 μM, 24 h post treatment) d Direct target identification with SLAM-seq. The experimental scheme is shown in the upper section of the panel. VGN50 or mutant peptide (24 μM final concentration) were added to BC-1 or BCBL-1 cells 30 mins prior to incubation with 4sU, and RNA was labeled for 1 h in the presence of each peptide. The C/T converted RNA-species were compared with mock-treated samples and depicted as scatter plots. Each treatment was performed in duplicate and nascent transcripts with p-values <0.05 are indicated as red dots. e Integrative Genomics Viewer (IGV). Both non-T/C converted and converted sequence reads were visualized with the IGV, and a snapshot of the MYC 3′-UTR region is presented. […] The strategy of gene selection for CSAN is described on the left-hand side of the panel. […] The number of common transcriptional regulators are shown in the Venn diagram and selected transcription and co-regulatory protein names are also included. The complete list of gene names is presented in Supplementary Fig. 3.

MYC expression in BCBL-1 = assay: MYC qRT-PCR; format: cell-based, human; conditions: BCBL-1, 24 μM, 24 h
Description: as §1, §2

In the case of `CC(C)C[C@H](NC(=O)CCNC(=O)[C@H](CCCNC(=N)N)NC(=O)[C@H](CCCNC(=N)N)NC(=O)[C@H](CCCNC(=N)N)NC(=O)[C@H](CCCN)NC(=O)[C@H](CCCNC(=N)N)NC(=O)[C@H](CCCNC(=N)N)NC(=O)[C@H](CCCCN)NC(=O)[C@H](CCCCN)NC(=O)[C@H](N)CCCNC(=N)N)C(=O)N[C@@H](CO)C(=O)N[C@@H](CO)C(=O)N[C@@H](C)C(=O)N[C@@H](C)C(=O)N[C@@H](C)C(=O)NCC(=O)N[C@@H](CC(C)C)C(=O)N[C@@H](Cc1ccc(O)cc1)C(=O)N[C@@H](CCC(N)=O)C(=O)N[C@@H](CC(C)C)C(=O)N[C@@H](CC(=O)O)C(=O)N[C@H](C(=O)O)[C@@H](C)O` [Mt-P] (H-[dR]KKRR[Orn]RRR[βAla]LSSAAAGLYQLDT-OH; N-terminus and C-terminus assumed), the “Binding to SWI/SNF components compared with VGN50” value (5 SWI/SNF components) is reported as “did not bind SWI/SNF components as much as VGN50”, the “C-myc 2^-(DCT)” value (MYC expression in BC-1; replicate 1) is reported as 9.403e-5 and the “C-myc 2^-(DCT)” value (MYC expression in BC-1; replicate 2) is reported as 9.337e-5. The “C-myc 2^-(DCT)” value (MYC expression in BCBL-1; replicate 1) was 9.038e-5 and the “C-myc 2^-(DCT)” value (MYC expression in BCBL-1; replicate 2) was 8.988e-5.
